Source: ChEMBL document CHEMBL1201862, “PubChem BioAssay data set” (2004)
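Each compound was tested at five concentrations against cells in 96-well plates for 48 hours. GI50 marks 50% less growth.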 Activity calls are given as the source filed them. No stated cut-off is given here; in the data, active = GI50 up to about 1.1 µM and inactive = higher.

Assays:
Test in all cases: NCI tumour cell line growth inhibition, 48 h
RXF 393 = test system: RXF 393
OVCAR-4 = test system: OVCAR-4
SK-OV-3 = test system: SK-OV-3
MCF7 = test system: MCF7
SF-539 = test system: SF-539
NCI-H23 = test system: NCI-H23
SR = test system: SR
HOP-92 = test system: HOP-92
SK-MEL-28 = test system: SK-MEL-28
SK-MEL-5 = test system: SK-MEL-5
MOLT-4 = test system: MOLT-4
RPMI-8226 = test system: RPMI-8226
PC-3 = test system: PC-3
DU-145 = test system: DU-145
UO-31 = test system: UO-31
M14 = test system: M14
NCI-H522 = test system: NCI-H522
SW-620 = test system: SW-620
MDA-MB-435 = test system: MDA-MB-435
U-251 = test system: U-251

Measured: GI50

COc1c(C(=O)/C(=N/Nc2ccccc2)C(C)=O)c(O)c(OC)c2occc12
inactive: RXF 393 13.7 µM | OVCAR-4 > 100 µM | SK-OV-3 65.2 µM | MCF7 25.4 µM | SF-539 > 100 µM | NCI-H23 33.3 µM | SR 35.8 µM | HOP-92 9.38 µM | SK-MEL-28 > 100 µM | SK-MEL-5 13.7 µM | MOLT-4 48.3 µM | RPMI-8226 17.2 µM | PC-3 27 µM | DU-145 > 100 µM | UO-31 17.2 µM | M14 > 100 µM | NCI-H522 41.8 µM | SW-620 77.8 µM | MDA-MB-435 34 µM | U-251 59.7 µM

CCOC(=O)NN(C(=O)OCC)C(=C(c1ccccc1)N1CCOCC1)N(NC(=O)OCC)C(=O)OCC
inactive: RXF 393 > 100 µM | OVCAR-4 > 100 µM | SK-OV-3 > 100 µM | MCF7 > 100 µM | SF-539 > 100 µM | NCI-H23 > 100 µM | SR > 100 µM | HOP-92 > 100 µM | SK-MEL-28 > 100 µM | SK-MEL-5 > 100 µM | MOLT-4 > 100 µM | RPMI-8226 > 100 µM | PC-3 > 100 µM | DU-145 > 100 µM | UO-31 58.5 µM | M14 > 100 µM | NCI-H522 > 100 µM | SW-620 > 100 µM | MDA-MB-435 > 100 µM | U-251 > 100 µM
